The values below come from patent US9714231B2, “Pyrrolidine GPR40 modulators” (BRISTOL-MYERS SQUIBB COMPANY, priority 2012, dated 2017).

Structures can show the parent of a compound that is named as a salt.

Chain of human GPR40 (O14842 whole entry): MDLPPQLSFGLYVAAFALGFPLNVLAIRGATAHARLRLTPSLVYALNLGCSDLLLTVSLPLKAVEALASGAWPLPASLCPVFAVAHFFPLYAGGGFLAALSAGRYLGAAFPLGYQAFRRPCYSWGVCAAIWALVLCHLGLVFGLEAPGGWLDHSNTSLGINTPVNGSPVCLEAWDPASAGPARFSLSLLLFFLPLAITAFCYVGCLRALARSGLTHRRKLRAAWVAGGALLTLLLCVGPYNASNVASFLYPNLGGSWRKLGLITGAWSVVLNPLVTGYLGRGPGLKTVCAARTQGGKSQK

This assay deals with human GPR40 (Homo sapiens, UniProt O14842). The assay is described as follows: FDSS-based intracellular calcium assay (Human GRP40 in vitro assay). The note with it: cells expressing GPR40, intracellular Ca2+ response, FDSS reader; read-out: hGPR40 EC50. The class given is cell-based. More on the design: 3xFLAG; expressed in transfected cells. Summed up:
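GPR40-expressing cells, plated overnight in serum-free phenol red-free DMEM, loaded with Fluo-3 in HBSS with 1.7 mM probenecid for 30 min at 37° C. Compounds in DMSO, diluted in assay buffer, added as 3× solutions; intracellular Ca^2+ response read on FDSS.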
(A change in cytosolic calcium serves as a functional read-out for many receptors and channels.)
Turning to `COc1cc(N2CCC(Oc3ccc(N4C[C@H](OC)C[C@@H]4CC(=O)O)cc3)CC2)c(Cl)cn1` [Example 87, 2-((2R,4R)-1-(4-((1-(5-Chloro-2-methoxypyridin-4-yl)piperidin-4-yl)oxy)phenyl)-4-methoxypyrrolidin-2-yl)acetic acid, TFA], the EC50 worked out at 350 nM.
In the case of `CCOc1ccc(F)c(N2CCC(Oc3ccc(N4C[C@H](OC)[C@@H](CC)[C@@H]4CC(=O)O)cc3)CC2)c1` [Example 88, 2-((2S,3S,4R)-1-(4-((1-(5-Ethoxy-2-fluorophenyl)piperidin-4-yl)oxy)phenyl)-3-ethyl-4-methoxypyrrolidin-2-yl)acetic acid, TFA], the EC50 turned out to be 250 nM.
With `CCOc1ccc(F)c(N2CCC(Oc3ccc(N4C[C@H](OC)[C@@H](C(C)C)[C@@H]4CC(=O)O)cc3)CC2)c1` [Example 89, 2-((2S,3S,4R)-1-(4-((1-(5-Ethoxy-2-fluorophenyl)piperidin-4-yl)oxy)phenyl)-3-isopropyl-4-methoxypyrrolidin-2-yl)acetic acid, TFA] the figure was 320 nM; with `CCOc1ccc(F)c(N2CCC(Oc3ccc(N4C[C@H](OC)[C@@H](C5CC5)[C@@H]4CC(=O)O)cc3)CC2)c1` [Example 90, 2-((2S,3S,4R)-3-Cyclopropyl-1-(4-((1-(5-ethoxy-2-fluorophenyl)piperidin-4-yl)oxy)phenyl)-4-methoxypyrrolidin-2-yl)acetic acid, TFA], 190 nM.
To `CCOc1ccc(F)c(N2CCC(Oc3ccc(N4C[C@H](OC)[C@@H](C5CCC5)[C@@H]4CC(=O)O)cc3)CC2)c1` [Example 92, 2-((2S,3S,4R)-3-Cyclobutyl-1-(4-((1-(5-ethoxy-2-fluorophenyl)piperidin-4-yl)oxy)phenyl)-4-methoxypyrrolidin-2-yl)acetic acid, TFA] belongs 3700 nM.
In the case of `COc1cc(N2CCC(Oc3ccc(N4C[C@H](OC)C[C@@H]4CC(=O)O)cc3)C(CC#N)C2)c(Cl)cn1` (stereo partly drawn) [Example 93, 2-((2R,4R)-1-(4-(((3,4-trans)-1-(5-Chloro-2-methoxypyridin-4-yl)-3-(cyanomethyl)piperidin-4-yl)oxy)phenyl)-4-methoxypyrrolidin-2-yl)acetic acid, TFA], the EC50 is 2300 nM.
For the molecule `COc1cc(N2CCC(Oc3ccc(N4C[C@H](OC)C[C@@H]4CC(=O)O)cc3)C(Cn3cnnn3)C2)c(Cl)cn1` (stereo partly drawn) [Example 94, 2-((2R,4R)-1-(4-(((3,4-trans)-3-((1H-Tetrazol-1-yl)methyl)-1-(5-chloro-2-methoxypyridin-4-yl)piperidin-4-yl)oxy)phenyl)-4-methoxypyrrolidin-2-yl)acetic acid, TFA], the EC50 was 3400 nM.
With `CCOc1ccc(F)c(N2CCC(Oc3ccc(N4C[C@H](OC)[C@@H](C)[C@@H]4CC(=O)O)cn3)CC2)c1` [Example 95, 2-((2S,3S,4R)-1-(6-((1-(5-Ethoxy-2-fluorophenyl)piperidin-4-yl)oxy)pyridin-3-yl)-4-methoxy-3-methylpyrrolidin-2-yl)acetic acid, TFA] the figure was 510 nM.
Regarding `COc1cc(N2CCC(Oc3ccc(N4C[C@H](OC)[C@@H](C)[C@@H]4CC(=O)O)cn3)CC2)c(Cl)cn1` [Example 97, 2-((2S,3S,4R)-1-(6-((1-(5-Chloro-2-methoxypyridin-4-yl)piperidin-4-yl)oxy)pyridin-3-yl)-4-methoxy-3-methylpyrrolidin-2-yl)acetic acid], the EC50 stood at 110 nM.
On to `CCOc1ccc(F)c(N2CCC(Oc3ccc(N4C[C@H](OC)[C@@H](C)[C@@H]4CC(=O)O)cc3F)C(C)C2)c1` (stereo partly drawn) [Example 100, 2-((2S,3S,4R)-1-(4-(((3,4-trans)-1-(5-Ethoxy-2-fluorophenyl)-3-methylpiperidin-4-yl)oxy)-3-fluorophenyl)-4-methoxy-3-methylpyrrolidin-2-yl)acetic acid], for which the EC50 amounted to 110 nM.
With `CCOc1ccc(F)c(N2CCC(Oc3ccc(N4C[C@H](OC)[C@@H](C)[C@@H]4CC(=O)O)cc3F)CC2)c1` [Example 101, 2-((2S,3S,4R)-1-(4-((1-(5-Ethoxy-2-fluorophenyl)piperidin-4-yl)oxy)-3-fluorophenyl)-4-methoxy-3-methylpyrrolidin-2-yl)acetic acid] the figure was 180 nM; with `CCCCCO[C@@H]1C[C@H](CC(=O)O)N(c2ccc(OC3CCN(c4cc(OCC)ccc4F)CC3)cc2)C1` [Example 103, 2-((2R,4R)-1-(4-((1-(5-Ethoxy-2-fluorophenyl)piperidin-4-yl)oxy)phenyl)-4-(pentyloxy)pyrrolidin-2-yl)acetic acid, TFA], 120 nM.
On to `CCOc1ccc(F)c(N2CCC(Oc3ccc(N4CC[C@@H](C)[C@@H]4CC(=O)O)cc3)CC2)c1` [Example 104, 2-((2S,3R)-1-(4-((1-(5-Ethoxy-2-fluorophenyl)piperidin-4-yl)oxy)phenyl)-3-methylpyrrolidin-2-yl)acetic acid, TFA], for which the EC50 worked out at 250 nM.
To `COc1cc(N2CCC(Oc3ccc(N4CC[C@@H](C)[C@@H]4CC(=O)O)cn3)C(C)C2)c(Cl)cn1` (stereo partly drawn) [Example 105, 2-((2S,3R)-1-(6-(((3,4-trans)-1-(5-Chloro-2-methoxypyridin-4-yl)-3-methylpiperidin-4-yl)oxy)pyridin-3-yl)-3-methylpyrrolidin-2-yl)acetic acid] belongs 60 nM.
As to `COc1cc(N2CCC(Oc3ccc(N4C[C@H](C)[C@@H](C)[C@@H]4CC(=O)O)cn3)C(C)C2)c(Cl)cn1` (stereo partly drawn) [Example 106, 2-((2S,3R,4R)-1-(6-(((3,4-trans)-1-(5-Chloro-2-methoxypyridin-4-yl)-3-methylpiperidin-4-yl)oxy)pyridin-3-yl)-3,4-dimethylpyrrolidin-2-yl)acetic acid], the EC50 came out at 170 nM.
In the case of `CCOc1ccc(F)c(N2CCC(Oc3ccc(N4C[C@H](OC)C[C@@H]4CC(=O)O)cc3)CC2)c1` [Example 107, 2-((2R,4R)-1-(4-((1-(5-Ethoxy-2-fluorophenyl)piperidin-4-yl)oxy)phenyl)-4-methoxypyrrolidin-2-yl)acetic acid, TFA], the EC50 stood at 160 nM.
`COc1cc(N2CCC(Oc3ccc(N4CC(C)(C)C[C@@H]4CC(=O)O)cn3)C(C)C2)c(Cl)cn1` (stereo partly drawn) [Example 109, 2-((R)-1-(6-(((3,4-trans)-1-(5-Chloro-2-methoxypyridin-4-yl)-3-methylpiperidin-4-yl)oxy)pyridin-3-yl)-4,4-dimethylpyrrolidin-2-yl)acetic acid, TFA]: the EC50 amounted to 230 nM.
With `COc1cc(N2CCC(Oc3ccc(N4C[C@H](C)C[C@@H]4CC(=O)O)cn3)C(C)C2)c(Cl)cn1` (stereo partly drawn) [Example 110, 2-((2R,4R)-1-(6-(((3,4-trans)-1-(5-Chloro-2-methoxypyridin-4-yl)-3-methylpiperidin-4-yl)oxy)pyridin-3-yl)-4-methylpyrrolidin-2-yl)acetic acid] the figure was 220 nM; with `COc1cc(N2CCC(Oc3ccc(N4C[C@H](OC)[C@@H](C)[C@@H]4CC(=O)O)c(F)c3)C(C)C2)c(Cl)cn1` (stereo partly drawn) [Example 111, 2-((2S,3S,4R)-1-(4-(((3,4-trans)-1-(5-Chloro-2-methoxypyridin-4-yl)-3-methylpiperidin-4-yl)oxy)-2-fluorophenyl)-4-methoxy-3-methylpyrrolidin-2-yl)acetic acid], 110 nM; with `COc1cc(N2CCC(Oc3ccc(N4C[C@H](OC)[C@@H](C)[C@@H]4CC(=O)O)c(F)c3)CC2)c(Cl)cn1` [Example 112, 2-((2S,3S,4R)-1-(4-((1-(5-Chloro-2-methoxypyridin-4-yl)piperidin-4-yl)oxy)-2-fluorophenyl)-4-methoxy-3-methylpyrrolidin-2-yl)acetic acid], 130 nM.
To `CCOc1ccc(F)c(N2CCC(Oc3ccc(N4C[C@H](OC)[C@@H](C)[C@@H]4CC(=O)O)c(F)c3)C(C)C2)c1` (stereo partly drawn) [Example 113, 2-((2S,3S,4R)-1-(4-(((3,4-trans)-1-(5-Ethoxy-2-fluorophenyl)-3-methylpiperidin-4-yl)oxy)-2-fluorophenyl)-4-methoxy-3-methylpyrrolidin-2-yl)acetic acid] belongs 290 nM; to `CCOc1ccc(F)c(N2CCC(Oc3ccc(N4C[C@H](OC)[C@@H](C)[C@@H]4CC(=O)O)c(F)c3)CC2)c1` [Example 114, 2-((2S,3S,4R)-1-(4-((1-(5-Ethoxy-2-fluorophenyl)piperidin-4-yl)oxy)-2-fluorophenyl)-4-methoxy-3-methylpyrrolidin-2-yl)acetic acid], 320 nM.
Regarding `CCOc1ccc(F)c(N2CCC(Oc3ccc(N4C[C@H](c5cccc(C(F)(F)F)c5)C[C@@H]4CC(=O)O)cc3)CC2)c1` [Example 122, 2-((2R,4S)-1-(4-((1-(5-Ethoxy-2-fluorophenyl)piperidin-4-yl)oxy)phenyl)-4-(3-(trifluoromethyl)phenyl)pyrrolidin-2-yl)acetic acid, TFA], the EC50 worked out at 240 nM.
With `CCOc1ccc(F)c(N2CCC(Oc3ccc(N4C[C@H](c5cnn(C)c5)C[C@@H]4CC(=O)O)cc3)CC2)c1` [Example 126, 2-((2R,4S)-1-(4-((1-(5-Ethoxy-2-fluorophenyl)piperidin-4-yl)oxy)phenyl)-4-(1-methyl-1H-pyrazol-4-yl)pyrrolidin-2-yl)acetic acid, TFA], the 50% effective concentration (EC50) is 810 nM.
Consider `CCOc1ccc(F)c(N2CCC(Oc3ccc(N4C[C@H](Oc5ccc(C#N)cc5)CC4CC(=O)O)cc3)CC2)c1` (stereo partly drawn) [Example 128, 2-((4R)-4-(4-Cyanophenoxy)-1-(4-((1-(5-ethoxy-2-fluorophenyl)piperidin-4-yl)oxy)phenyl)pyrrolidin-2-yl)acetic acid, HCl], for which the EC50 was found to be 1300 nM.
To `CCOc1ccc(F)c(N2CCC(Oc3ccc(N4C[C@H](C#N)C[C@@H]4CC(=O)O)cc3)CC2)c1` [Example 130, 2-((2R,4R)-4-Cyano-1-(4-((1-(5-ethoxy-2-fluorophenyl)piperidin-4-yl)oxy)phenyl)pyrrolidin-2-yl)acetic acid, TFA] belongs 2100 nM.

For orientation: EC50 means the concentration giving half of the maximal effect.
